{
  "source": "patent US20180086749A1",
  "about": "“INHIBITORS OF VIRUSES” (priority 2015, published 2018)",
  "test_system": "cellular metabolites of HEK 293T cells",
  "assay": "Metabolomics analysis of cellular metabolites",
  "type": "cell-based, human",
  "key": {"[1]": {"details": "ML416-treated / DMSO-treated, 18 hours"}, "[2]": {"details": "ML416 / DMSO, metabolite not confirmed by standard"}},
  "note": "Where “and” joins values, the source holds several entries; their conditions need not be identical. Equal entries are not always repeated.",
  "data": [
    {"smiles": "CN(C(=O)Cc1sccc1F)c1nc2c(s1)CCCC2", "note": "[ML416, 2-(3-fluorothiophen-2-yl)-N-methyl-N-(4,5,6,7-tetrahydro-1,3-benzothiazol-2-yl)acetamide]", "values": [
      {"measurement": "Fold Change: 3-((carboxymethyl)(methyl)amino)-3-oxopropanoic acid", "setting": "[1]", "result": 0.46, "unit": "fold"},
      {"measurement": "Fold Change: Citirc acid", "setting": "[1]", "result": 0.62, "unit": "fold"},
      {"measurement": "Fold Change: D-(−)-Lactic acid", "setting": "[1]", "result": 0.76, "unit": "fold"},
      {"measurement": "Fold Change: DL-Ornithine", "setting": "[1]", "result": 0.53, "unit": "fold"},
      {"measurement": "Fold Change: DL-Phenylalanine", "setting": "[1]", "result": 0.71, "unit": "fold"},
      {"measurement": "Fold Change: Fumaric Acid", "setting": "[1]", "result": "11 fold and 11.00 fold"},
      {"measurement": "Fold Change: Glycine", "setting": "[1]", "result": 2.80, "unit": "fold"},
      {"measurement": "Fold Change: L-Asparagine", "setting": "[1]", "result": 0.41, "unit": "fold"},
      {"measurement": "Fold Change: L-Aspartic acid", "setting": "[1]", "result": 2.07, "unit": "fold"},
      {"measurement": "Fold Change: L-Glutamic acid", "setting": "[1]", "result": 0.09, "unit": "fold"},
      {"measurement": "Fold Change: L-Isoleucine", "setting": "[1]", "result": 0.45, "unit": "fold"},
      {"measurement": "Fold Change: L-Lysine", "setting": "[1]", "result": 2.76, "unit": "fold"},
      {"measurement": "Fold Change: L-Proline", "setting": "[1]", "result": 0.28, "unit": "fold"},
      {"measurement": "Fold Change: L-Threonine", "setting": "[1]", "result": 0.54, "unit": "fold"},
      {"measurement": "Fold Change: L-Tyrosine", "setting": "[1]", "result": 0.86, "unit": "fold"},
      {"measurement": "Fold Change: Lauric acid; Dodecanoic acid", "setting": "[1]", "result": 0.73, "unit": "fold"},
      {"measurement": "Fold Change: Oxalic acid", "setting": "[1]", "result": 0.66, "unit": "fold"},
      {"measurement": "Fold Change: Phenylalanine", "setting": "[1]", "result": 0.40, "unit": "fold"},
      {"measurement": "Fold Change: Pyruvic acid", "setting": "[1]", "result": 1.60, "unit": "fold"},
      {"measurement": "Fold Change: Tryptophan", "setting": "[1]", "result": 1.23, "unit": "fold"},
      {"measurement": "presence of free uridine", "setting": "ML416-treated groups", "result": "not detected"},
      {"measurement": "Fold Change: 1-phenylpropan-2-amine; Amphetamine; Fenopromin*", "setting": "[2]", "result": 0.80, "unit": "fold"},
      {"measurement": "Fold Change: 2-(Dimethylamino)ethyl neopentyl carbonate*", "setting": "[2]", "result": 1.49, "unit": "fold"},
      {"measurement": "Fold Change: 3,3-diethoxy-2-hydroxypropyl dihydrogen phosphate*", "setting": "[2]", "result": 0.58, "unit": "fold"},
      {"measurement": "Fold Change: 3-Glycerophosphate*", "setting": "[2]", "result": 1.71, "unit": "fold"},
      {"measurement": "Fold Change: 3-hydroxy-2-methylpropanoic acid; 3-Hydroxyisobutyric acid*", "setting": "[2]", "result": 0.70, "unit": "fold"},
      {"measurement": "Fold Change: Adenine*", "setting": "[2]", "result": 1.37, "unit": "fold"},
      {"measurement": "Fold Change: Dihydromuconic acid; trans-3-Hexenedioic acid*", "setting": "[2]", "result": 0.23, "unit": "fold"},
      {"measurement": "Fold Change: Ethylcholine mustard*", "setting": "[2]", "result": 0.49, "unit": "fold"},
      {"measurement": "Fold Change: L-Norvaline*", "setting": "[2]", "result": 0.52, "unit": "fold"},
      {"measurement": "Fold Change: Niacinamine*", "setting": "[2]", "result": 0.74, "unit": "fold"},
      {"measurement": "Fold Change: O-phosphorylethanolamine; 2-aminoethyl dihydrogen phosphate*", "setting": "[2]", "result": 1.35, "unit": "fold"},
      {"measurement": "Fold Change: Ribitol*", "setting": "[2]", "result": 0.66, "unit": "fold"},
      {"measurement": "Fold Change: Scyllo-Inositol*", "setting": "[2]", "result": 1.23, "unit": "fold"},
      {"measurement": "Fold Change: meso-Erythritol; Erythritol*", "setting": "[2]", "result": 0.69, "unit": "fold"},
      {"measurement": "presence of dihydroorotic acid (DHO)", "setting": "ML416 vs mock-treated", "result": "found only in ML416-treated groups"},
      {"measurement": "presence of orotic acid", "setting": "ML416 vs mock-treated", "result": "found only in ML416-treated groups"}
    ]}
  ]
}
